According to PMC5218480 (PLoS ONE, 2017):

Tested on: MV-4-11 cells
Experiment: Gene expression microarray analysis (Affymetrix PrimeView) and GSEA
Format: cell-based, human
Design: RFU PODN (11730768_x_at) / Fold change /veh PODN (11730768_x_at) / RFU LINC00158 (11744669_a_at) / Fold change /veh LINC00158 (11744669_a_at) / RFU DUSP10 (11751237_a_at) / Fold change /veh DUSP10 (11751237_a_at) / RFU ID3 (11757404_x_at) / Fold change /veh ID3 (11757404_x_at) / RFU PLEKHG5 (11737974_s_at) / Fold change /veh PLEKHG5 (11737974_s_at) / RFU LRRC4B (11730491_at) / Fold change /veh LRRC4B (11730491_at) / RFU GIMAP4 (11747438_a_at) / Fold change /veh GIMAP4 (11747438_a_at) / RFU KRT8 (11758183_x_at) / Fold change /veh KRT8 (11758183_x_at) / RFU CNN1 (11734310_a_at) / Fold change /veh CNN1 (11734310_a_at) / RFU VPS37D (11726825_at) / Fold change /veh VPS37D (11726825_at) / RFU C10orf10 (11716522_x_at) / Fold change /veh C10orf10 (11716522_x_at) / RFU KIR2DL2 /// KIR2DL4 /// KIR2DL5A /// KIR2DL5B /// KIR2DS1 /// KIR2DS2 /// KIR2DS3 /// KIR2DS4 /// KIR3DL3 /// KIR3DL3 /// KIR3DS1 (11738374_at) / Fold change /veh KIR2DL2 /// KIR2DL4 /// KIR2DL5A /// KIR2DL5B /// KIR2DS1 /// KIR2DS2 /// KIR2DS3 /// KIR2DS4 /// KIR3DL3 /// KIR3DL3 /// KIR3DS1 (11738374_at) / RFU C1QL1 (11718748_at) / Fold change /veh C1QL1 (11718748_at) / RFU TMPRSS4 (11747572_a_at) / Fold change /veh TMPRSS4 (11747572_a_at) / RFU HAMP (11756126_x_at) / Fold change /veh HAMP (11756126_x_at) / RFU RNFT2 (11725882_a_at) / Fold change /veh RNFT2 (11725882_a_at) / RFU NR4A2 (11747474_a_at) / Fold change /veh NR4A2 (11747474_a_at) / RFU ABCC12 (11746883_a_at) / Fold change /veh ABCC12 (11746883_a_at) / RFU TMEM136 (11760407_x_at) / Fold change /veh TMEM136 (11760407_x_at) / RFU CLDN22 /// WWC2 (11732394_at) / Fold change /veh CLDN22 /// WWC2 (11732394_at) / RFU HLA-DPB1 (11760878_x_at) / Fold change /veh HLA-DPB1 (11760878_x_at) / RFU SPINT1 (11716480_a_at) / Fold change /veh SPINT1 (11716480_a_at) / RFU GAP43 (11754022_s_at) / Fold change /veh GAP43 (11754022_s_at) / RFU A4GNT (11735810_at) / Fold change /veh A4GNT (11735810_at) / RFU PRB3 (11715151_x_at) / Fold change /veh PRB3 (11715151_x_at) / RFU TUBB4B (11761932_at) / Fold change /veh TUBB4B (11761932_at) / RFU CAPN14 (11732068_a_at) / Fold change /veh CAPN14 (11732068_a_at) / RFU TMCC2 (11721928_a_at) / Fold change /veh TMCC2 (11721928_a_at) / RFU IRGQ (11745062_a_at) / Fold change /veh IRGQ (11745062_a_at) / RFU FAM174B (11720279_a_at) / Fold change /veh FAM174B (11720279_a_at) / RFU TMPRSS4 (11748680_a_at) / Fold change /veh TMPRSS4 (11748680_a_at) / RFU FAM212B (11763350_a_at) / Fold change /veh FAM212B (11763350_a_at) / RFU PLEKHG5 (11743358_a_at) / Fold change /veh PLEKHG5 (11743358_a_at) / RFU ZSCAN30 (11745921_a_at) / Fold change /veh ZSCAN30 (11745921_a_at) / RFU CMKLR1 (11741424_a_at) / Fold change /veh CMKLR1 (11741424_a_at) / RFU LOC101060620 /// MAPK8IP1 (11723275_at) / Fold change /veh LOC101060620 /// MAPK8IP1 (11723275_at) / RFU SPTSSB (11747773_x_at) / Fold change /veh SPTSSB (11747773_x_at) / RFU PRSS12 (11739890_at) / Fold change /veh PRSS12 (11739890_at) / RFU BIN1 (11741810_x_at) / Fold change /veh BIN1 (11741810_x_at) / RFU WNT11 (11732464_a_at) / Fold change /veh WNT11 (11732464_a_at) / RFU C10orf10 (11716521_a_at) / Fold change /veh C10orf10 (11716521_a_at) / RFU C5orf56 (11738089_at) / Fold change /veh C5orf56 (11738089_at) / RFU CYB561 (11721691_x_at) / Fold change /veh CYB561 (11721691_x_at) / RFU ANKRD19P (11752326_a_at) / Fold change /veh ANKRD19P (11752326_a_at) / RFU OR2T12 /// OR2T33 /// OR2T8 (11738714_s_at) / Fold change /veh OR2T12 /// OR2T33 /// OR2T8 (11738714_s_at) / RFU VCAN (11748164_a_at) / Fold change /veh VCAN (11748164_a_at) / RFU JSRP1 (11732532_at) / Fold change /veh JSRP1 (11732532_at) / RFU KRTAP10-11 (11738290_x_at) / Fold change /veh KRTAP10-11 (11738290_x_at) / RFU MYO3A (11730013_a_at) / Fold change /veh MYO3A (11730013_a_at) / RFU EBF3 (11725865_a_at) / Fold change /veh EBF3 (11725865_a_at) / RFU CAMK2N1 (11719241_x_at) / Fold change /veh CAMK2N1 (11719241_x_at) / RFU C5orf56 (11738088_a_at) / Fold change /veh C5orf56 (11738088_a_at) / RFU OLFML3 (11715873_a_at) / Fold change /veh OLFML3 (11715873_a_at) / RFU LOC100653217 /// NTM (11731650_a_at) / Fold change /veh LOC100653217 /// NTM (11731650_a_at) / RFU MAPK11 (11762145_a_at) / Fold change /veh MAPK11 (11762145_a_at) / RFU FIZ1 (11724087_x_at) / Fold change /veh FIZ1 (11724087_x_at) / RFU OASL (11726364_x_at) / Fold change /veh OASL (11726364_x_at) / RFU SOX15 (11748057_x_at) / Fold change /veh SOX15 (11748057_x_at) / RFU CD79A (11719716_a_at) / Fold change /veh CD79A (11719716_a_at) / RFU HIST1H1D (11736915_at) / Fold change /veh HIST1H1D (11736915_at) / RFU CASKIN2 (11723855_a_at) / Fold change /veh CASKIN2 (11723855_a_at) / RFU LOC730098 (11760151_x_at) / Fold change /veh LOC730098 (11760151_x_at) / RFU OR4N2 (11742367_at) / Fold change /veh OR4N2 (11742367_at) / RFU PRRT2 (11749266_a_at) / Fold change /veh PRRT2 (11749266_a_at) / RFU SNX32 (11753110_a_at) / Fold change /veh SNX32 (11753110_a_at) / RFU CDHR5 (11726645_a_at) / Fold change /veh CDHR5 (11726645_a_at) / RFU RCAN1 (11760418_a_at) / Fold change /veh RCAN1 (11760418_a_at) / RFU FAM167A (11723789_a_at) / Fold change /veh FAM167A (11723789_a_at) / RFU FAM26E (11764081_at) / Fold change /veh FAM26E (11764081_at) / RFU ISYNA1 (11749810_s_at) / Fold change /veh ISYNA1 (11749810_s_at) / RFU ACY1 (11761880_at) / Fold change /veh ACY1 (11761880_at) / RFU 11764098_at / Fold change /veh 11764098_at / RFU SAMD14 (11745864_x_at) / Fold change /veh SAMD14 (11745864_x_at) / RFU NPB (11741838_a_at) / Fold change /veh NPB (11741838_a_at) / RFU TMPRSS6 (11731388_a_at) / Fold change /veh TMPRSS6 (11731388_a_at) / RFU KRTAP10-2 (11738614_at) / Fold change /veh KRTAP10-2 (11738614_at) / RFU ARHGAP8 /// PRR5-ARHGAP8 (11727945_x_at) / Fold change /veh ARHGAP8 /// PRR5-ARHGAP8 (11727945_x_at) / RFU KRTAP5-7 /// NADSYN1 (11734609_at) / Fold change /veh KRTAP5-7 /// NADSYN1 (11734609_at) / RFU RASL12 (11751679_a_at) / Fold change /veh RASL12 (11751679_a_at) / RFU CDKN2B (11736163_a_at) / Fold change /veh CDKN2B (11736163_a_at) / RFU PRF1 (11729649_at) / Fold change /veh PRF1 (11729649_at) / RFU, ZNF638 /// ZNF638-IT1 / Fold change vs veh, ZNF638 /// ZNF638-IT1 / RFU, PANK3 / Fold change vs veh, PANK3 / RFU, SH3YL1 / Fold change vs veh, SH3YL1 / RFU, ZEB2 / Fold change vs veh, ZEB2 / RFU, NRIP1 / Fold change vs veh, NRIP1 / RFU, PTTG1IP / Fold change vs veh, PTTG1IP / RFU, CAPN2 / Fold change vs veh, CAPN2 / RFU, MED14 / Fold change vs veh, MED14 / RFU, SNORA58 / Fold change vs veh, SNORA58 / RFU, C1orf63 / Fold change vs veh, C1orf63 / RFU, LRRFIP1 / Fold change vs veh, LRRFIP1 / RFU, NDUFAF7 / Fold change vs veh, NDUFAF7 / RFU, SLC12A2 / Fold change vs veh, SLC12A2 / RFU, IBTK / Fold change vs veh, IBTK / RFU, ESF1 / Fold change vs veh, ESF1 / Fold change vs veh, TMEM50B / RFU, TAOK1 / Fold change vs veh, TAOK1 / RFU, ACBD3 / Fold change vs veh, ACBD3 / RFU, TMA16 / Fold change vs veh, TMA16 / RFU, RWDD3 / Fold change vs veh, RWDD3 / RFU, BCAT1 / Fold change vs veh, BCAT1 / RFU, EDEM3 / Fold change vs veh, EDEM3 / RFU, TMEM33 / Fold change vs veh, TMEM33 / RFU, WDR75 / Fold change vs veh, WDR75 / RFU, AHCTF1 / Fold change vs veh, AHCTF1 / RFU, TFRC / Fold change vs veh, TFRC / RFU, ZDHHC17 / Fold change vs veh, ZDHHC17 / RFU, NOM1 / Fold change vs veh, NOM1 / RFU, ARL8B / Fold change vs veh, ARL8B / RFU, ZBTB11 / Fold change vs veh, ZBTB11 / RFU, TAMM41 / Fold change vs veh, TAMM41 / RFU, KIAA1704 /// LOC100996395 / Fold change vs veh, KIAA1704 /// LOC100996395 / RFU, ING1 / Fold change vs veh, ING1 / RFU, TRMT61B / Fold change vs veh, TRMT61B / RFU, FUBP3 / Fold change vs veh, FUBP3 / RFU, TP53 / Fold change vs veh, TP53 / RFU, TNKS2 / Fold change vs veh, TNKS2 / RFU, ZFP14 / Fold change vs veh, ZFP14 / RFU, ACTR2 / Fold change vs veh, ACTR2 / RFU, PPP3R1 / Fold change vs veh, PPP3R1 / RFU, PIK3R1 / Fold change vs veh, PIK3R1 / RFU, HNRNPA1 / Fold change vs veh, HNRNPA1 / RFU, RNF170 / Fold change vs veh, RNF170 / RFU, ZNF28 / Fold change vs veh, ZNF28 / RFU, RNGTT / Fold change vs veh, RNGTT / RFU, OGT / Fold change vs veh, OGT / RFU, BRD1 / Fold change vs veh, BRD1 / RFU, MARS / Fold change vs veh, MARS / RFU, ZNF655 / Fold change vs veh, ZNF655 / RFU, FAHD1 / Fold change vs veh, FAHD1 / RFU, BDP1 / Fold change vs veh, BDP1 / RFU, LRRCC1 / Fold change vs veh, LRRCC1 / RFU, ARID1A / Fold change vs veh, ARID1A / RFU, ZNF146 / Fold change vs veh, ZNF146 / RFU, ZNF330 / Fold change vs veh, ZNF330 / RFU, GPN3 / Fold change vs veh, GPN3 / RFU, C9orf123 / Fold change vs veh, C9orf123 / RFU, N4BP2L2 / Fold change vs veh, N4BP2L2 / RFU, ARFIP1 / Fold change vs veh, ARFIP1 / RFU, FAM179B / Fold change vs veh, FAM179B / RFU, BCL10 / Fold change vs veh, BCL10 / RFU, UHRF1BP1L / Fold change vs veh, UHRF1BP1L / RFU, BET1 / Fold change vs veh, BET1 / RFU, CNOT2 / Fold change vs veh, CNOT2 / RFU, ZNF268 / Fold change vs veh, ZNF268 / Fold change vs veh, ZNF507 / RFU, DGCR2 / Fold change vs veh, DGCR2 / RFU, WDSUB1 / Fold change vs veh, WDSUB1 / Fold change vs veh, HSP90B1 /// MIR3652 / RFU, ADSS / Fold change vs veh, ADSS / RFU, GK / Fold change vs veh, GK / RFU, ZNF148 / Fold change vs veh, ZNF148 / RFU, TAF9 / Fold change vs veh, TAF9 / RFU, SLC1A5 / Fold change vs veh, SLC1A5 / RFU, SLMO2 / Fold change vs veh, SLMO2 / RFU, ABCC4 / Fold change vs veh, ABCC4 / RFU, LOC101060439 /// RAP1B / Fold change vs veh, LOC101060439 /// RAP1B / RFU, RFX7 / Fold change vs veh, RFX7 / RFU, GTPBP10 / Fold change vs veh, GTPBP10 / RFU, CNEP1R1 / Fold change vs veh, CNEP1R1 / RFU, BIVM-ERCC5 /// ERCC5 / Fold change vs veh, BIVM-ERCC5 /// ERCC5 / RFU, ILF3 / Fold change vs veh, ILF3 / RFU 11762660_at / Fold change /veh 11762660_at / RFU VCAN (11757783_s_at) / Fold change /veh VCAN (11757783_s_at) / RFU DDX43 (11728927_at) / Fold change /veh DDX43 (11728927_at) / RFU KRT8 (11758188_x_at) / Fold change /veh KRT8 (11758188_x_at) / RFU NKD1 (11759106_at) / Fold change /veh NKD1 (11759106_at) / RFU SRD5A1 (11742802_a_at) / Fold change /veh SRD5A1 (11742802_a_at) / RFU TPSAB1 /// TPSB2 (11721975_s_at) / Fold change /veh TPSAB1 /// TPSB2 (11721975_s_at) / RFU GSTM3 (11746129_a_at) / Fold change /veh GSTM3 (11746129_a_at) / RFU IL23R (11737362_x_at) / Fold change /veh IL23R (11737362_x_at) / RFU TMEM51 (11727254_a_at) / Fold change /veh TMEM51 (11727254_a_at) / RFU PIWIL2 (11732686_x_at) / Fold change /veh PIWIL2 (11732686_x_at) / RFU ORM1 (11744905_x_at) / Fold change /veh ORM1 (11744905_x_at) / RFU CCDC152 (11743942_at) / Fold change /veh CCDC152 (11743942_at) / RFU ECM1 (11717891_a_at) / Fold change /veh ECM1 (11717891_a_at) / RFU IL23R (11748794_a_at) / Fold change /veh IL23R (11748794_a_at) / RFU TNFAIP8L3 (11732012_x_at) / Fold change /veh TNFAIP8L3 (11732012_x_at) / RFU MBOAT4 (11741988_at) / Fold change /veh MBOAT4 (11741988_at) / RFU 11764193_at / Fold change /veh 11764193_at / RFU TMEM53 (11763286_at) / Fold change /veh TMEM53 (11763286_at) / RFU MAGEB2 (11727129_at) / Fold change /veh MAGEB2 (11727129_at) / RFU TMEM200A (11744735_a_at) / Fold change /veh TMEM200A (11744735_a_at) / RFU CCDC152 (11751479_a_at) / Fold change /veh CCDC152 (11751479_a_at) / RFU FAM211A (11726209_a_at) / Fold change /veh FAM211A (11726209_a_at) / RFU RGS16 (11746705_a_at) / Fold change /veh RGS16 (11746705_a_at) / RFU VCAN (11755009_s_at) / Fold change /veh VCAN (11755009_s_at) / RFU RHOB (11743442_s_at) / Fold change /veh RHOB (11743442_s_at) / RFU RGS16 (11720943_a_at) / Fold change /veh RGS16 (11720943_a_at) / RFU RGS16 (11720944_at) / Fold change /veh RGS16 (11720944_at) / RFU, VPS4B / Fold change vs veh, VPS4B / RFU, CREB1 / Fold change vs veh, CREB1 / RFU, DNAJC13 / Fold change vs veh, DNAJC13 / RFU, GNAQ / Fold change vs veh, GNAQ / RFU, CDK5R1 / Fold change vs veh, CDK5R1 / RFU, ZRANB3 / Fold change vs veh, ZRANB3 / RFU, CUL4A / Fold change vs veh, CUL4A / RFU, CCNY / Fold change vs veh, CCNY / RFU, UFL1 / Fold change vs veh, UFL1 / RFU, COG3 / Fold change vs veh, COG3 / RFU, DIAPH2 / Fold change vs veh, DIAPH2 / RFU, SKA2 / Fold change vs veh, SKA2 / RFU, AFF3 / Fold change vs veh, AFF3 / RFU, LMF1 / Fold change vs veh, LMF1 / RFU, IPO11 / Fold change vs veh, IPO11 / RFU, DFFB / Fold change vs veh, DFFB / RFU, FOXP1 / Fold change vs veh, FOXP1 / RFU, CARD8 / Fold change vs veh, CARD8 / RFU, STRN3 / Fold change vs veh, STRN3 / RFU, ADK / Fold change vs veh, ADK / RFU, RASSF2 / Fold change vs veh, RASSF2 / RFU, WIPF1 / Fold change vs veh, WIPF1 / RFU, LARP1B / Fold change vs veh, LARP1B / RFU, RASA1 / Fold change vs veh, RASA1 / RFU, RB1 / Fold change vs veh, RB1 / RFU, PPFIA1 / Fold change vs veh, PPFIA1 / RFU, MAT2A / Fold change vs veh, MAT2A / RFU, CCT5 / Fold change vs veh, CCT5 / RFU, WDR92 / Fold change vs veh, WDR92 / RFU, CUX1 / Fold change vs veh, CUX1 / RFU, TTC7A / Fold change vs veh, TTC7A / RFU, TMEM135 / Fold change vs veh, TMEM135 / RFU, DEPTOR / Fold change vs veh, DEPTOR / RFU, CPM / Fold change vs veh, CPM / RFU, DNAJB6 / Fold change vs veh, DNAJB6 / RFU, CACNA2D3 / Fold change vs veh, CACNA2D3 / RFU, DTX4 / Fold change vs veh, DTX4 / RFU, TFCP2 / Fold change vs veh, TFCP2 / RFU, GMCL1 /// GMCL1P1 / Fold change vs veh, GMCL1 /// GMCL1P1 / RFU, AEBP2 / Fold change vs veh, AEBP2 / RFU, SNHG1 /// SNORD22 /// SNORD25 /// SNORD26 /// SNORD27 /// SNORD28 /// SNORD29 /// SNORD31 / Fold change vs veh, SNHG1 /// SNORD22 /// SNORD25 /// SNORD26 /// SNORD27 /// SNORD28 /// SNORD29 /// SNORD31 / Fold change (Aza/veh), C12orf56 (ProbeSet 11735607_a_at) / Fold change (ACY-1035/veh), C12orf56 (ProbeSet 11735607_a_at) / Fold change (Aza/veh), FGFR1OP (ProbeSet 11751329_s_at) / Fold change (ACY-1035/veh), FGFR1OP (ProbeSet 11751329_s_at) / Fold change (Aza/veh), VPS36 (ProbeSet 11739960_a_at) / Fold change (ACY-1035/veh), VPS36 (ProbeSet 11739960_a_at) / RFU SYPL1 (11715823_x_at) / Fold change /veh SYPL1 (11715823_x_at) / RFU IGFBP7 (11715501_s_at) / Fold change /veh IGFBP7 (11715501_s_at) / RFU REEP3 (11722064_at) / Fold change /veh REEP3 (11722064_at) / RFU IGLL1 (11728026_x_at) / Fold change /veh IGLL1 (11728026_x_at): dose or concentration left out as unconfirmed
Settings: ProbeSet 11752001_a_at; LIST D

Compound: Nc1ccc(-c2cccs2)cc1NC(=O)c1ccc2c(c1)cc(C1CC1)n2CCN1CCOCC1 [ACY-1035]
- RFU, CUL4A: 438.04 RFU
